Experimental data from the NIST ThermoML archive (doi:10.1021/je050343i).
± gives the expanded uncertainty stated by the source.

Assay: activity coefficient (dimensionless); of the first substance listed, at infinite dilution; xn = mol fraction of the nth substance listed
Settings: Liquid, Chromatography, x1 = 0

activity coefficient (249.95 K) | activity coefficient (269.95 K) | activity coefficient (289.9 K) | activity coefficient (309.99 K) | activity coefficient (330 K) | activity coefficient (250 K) | activity coefficient (269.96 K) | activity coefficient (289.99 K) | activity coefficient (249.92 K) | activity coefficient (270.04 K) | activity coefficient (249.98 K) | activity coefficient (249.94 K) | activity coefficient (250.01 K) | SMILES
– | 2.62 ± 0.18 | – | 2.35 ± 0.16 | 2.2 ± 0.15 | – | – | 2.51 ± 0.17 | – | – | 2.73 ± 0.19 | – | – | C/C=C/C [(E)-2-butene] + C=CC(C)(C)O
3.26 ± 0.22 | 3.2 ± 0.22 | 3.08 ± 0.21 | 2.9 ± 0.2 | 2.77 ± 0.19 | – | – | – | – | – | – | – | – | C/C=C\C [(Z)-2-butene] + C=C(C)CCO
– | – | – | 2.23 ± 0.15 | 2.05 ± 0.14 | 2.55 ± 0.17 | 2.48 ± 0.17 | 2.36 ± 0.16 | – | – | – | – | – | C/C=C\C [(Z)-2-butene] + C=CC(C)(C)O
– | – | – | 4.18 ± 0.28 | 3.99 ± 0.27 | – | – | 4.41 ± 0.3 | 4.89 ± 0.33 | 4.61 ± 0.31 | – | – | – | CCCC [butane] + C=C(C)CCO
– | 3.22 ± 0.22 | – | 2.87 ± 0.2 | 2.65 ± 0.18 | – | – | 3.08 ± 0.21 | – | – | 3.3 ± 0.22 | – | – | CCCC [butane] + C=CC(C)(C)O
– | 2.35 ± 0.16 | 2.32 ± 0.16 | 2.23 ± 0.15 | 1.99 ± 0.14 | – | – | – | – | – | – | 2.49 ± 0.17 | – | CCCl [chloroethane] + C=C(C)CCO
– | – | – | 1.69 ± 0.11 | 1.56 ± 0.1 | – | 2.16 ± 0.15 | 1.96 ± 0.13 | – | – | – | – | 2.28 ± 0.16 | CCCl [chloroethane] + C=CC(C)(C)O
1.28 ± 0.08 | 1.23 ± 0.08 | 1.2 ± 0.08 | 1.17 ± 0.07 | 1.15 ± 0.07 | – | – | – | – | – | – | – | – | COC [dimethyl ether] + C=C(C)CCO
– | – | – | 0.72 ± 0.05 | 0.74 ± 0.05 | – | 0.67 ± 0.05 | 0.7 ± 0.05 | – | – | – | – | 0.62 ± 0.04 | COC [dimethyl ether] + C=CC(C)(C)O
– | – | – | 3.86 ± 0.26 | 3.7 ± 0.25 | – | – | 4.1 ± 0.28 | 4.36 ± 0.3 | 4.19 ± 0.29 | – | – | – | CCC [propane] + C=C(C)CCO
– | 2.97 ± 0.2 | – | 2.7 ± 0.18 | 2.54 ± 0.17 | – | – | 2.86 ± 0.19 | – | – | 3.08 ± 0.21 | – | – | CCC [propane] + C=CC(C)(C)O
– | – | – | 2.92 ± 0.2 | 2.8 ± 0.19 | – | – | 2.99 ± 0.2 | 3.07 ± 0.21 | 3.04 ± 0.21 | – | – | – | C=CC [propene] + C=C(C)CCO
– | 2.38 ± 0.16 | – | 2.17 ± 0.15 | 2.05 ± 0.14 | – | – | 2.3 ± 0.16 | – | – | 2.46 ± 0.17 | – | – | C=CC [propene] + C=CC(C)(C)O

Further lines, the compound ahead of its results:

SMILES | activity coefficient (249.95 K) | activity coefficient (269.95 K) | activity coefficient (289.9 K) | activity coefficient (309.99 K) | activity coefficient (330 K) | activity coefficient (250 K) | activity coefficient (269.96 K) | activity coefficient (289.99 K) | activity coefficient (249.92 K) | activity coefficient (270.04 K) | activity coefficient (249.98 K) | activity coefficient (249.94 K) | activity coefficient (250.01 K)
CC(F)F [1,1-difluoroethane] + C=C(C)CCO | 4.94 ± 0.34 | 4.53 ± 0.31 | 4.12 ± 0.28 | 3.74 ± 0.25 | 3.5 ± 0.24 | – | – | – | – | – | – | – | –
CC(F)F [1,1-difluoroethane] + C=CC(C)(C)O | – | – | – | 2.89 ± 0.2 | 2.47 ± 0.17 | 4.68 ± 0.32 | 3.99 ± 0.27 | 3.39 ± 0.23 | – | – | – | – | –
C=CC=C [1,3-butadiene] + C=C(C)CCO | – | – | – | 2.56 ± 0.17 | 2.45 ± 0.17 | – | – | 2.65 ± 0.18 | 2.76 ± 0.19 | 2.69 ± 0.18 | – | – | –
C=CC=C [1,3-butadiene] + C=CC(C)(C)O | – | 2.36 ± 0.16 | – | 2.05 ± 0.14 | 1.88 ± 0.13 | – | – | 2.22 ± 0.15 | – | – | 2.43 ± 0.17 | – | –
C=CCC [1-butene] + C=C(C)CCO | – | – | – | 3.28 ± 0.22 | 3.13 ± 0.21 | – | – | 3.4 ± 0.23 | 3.57 ± 0.24 | 3.47 ± 0.24 | – | – | –
C=CCC [1-butene] + C=CC(C)(C)O | – | 2.65 ± 0.18 | – | 2.37 ± 0.16 | 2.2 ± 0.15 | – | – | 2.52 ± 0.17 | – | – | 2.74 ± 0.19 | – | –
CC(C)C [2-methylpropane] + C=C(C)CCO | – | – | – | 4.54 ± 0.31 | 4.29 ± 0.29 | – | – | 4.73 ± 0.32 | 5.27 ± 0.36 | 4.98 ± 0.34 | – | – | –
CC(C)C [2-methylpropane] + C=CC(C)(C)O | – | 3.42 ± 0.23 | – | 3.06 ± 0.21 | 2.83 ± 0.19 | – | – | 3.27 ± 0.22 | – | – | 3.56 ± 0.24 | – | –
C=C(C)C [2-methylpropene] + C=C(C)CCO | – | – | – | 3.21 ± 0.22 | 3.04 ± 0.21 | – | – | 3.32 ± 0.23 | 3.49 ± 0.24 | 3.41 ± 0.23 | – | – | –
C=C(C)C [2-methylpropene] + C=CC(C)(C)O | – | 2.61 ± 0.18 | – | 2.31 ± 0.16 | 2.15 ± 0.15 | – | – | 2.47 ± 0.17 | – | – | 2.72 ± 0.19 | – | –
C/C=C/C [(E)-2-butene] + C=C(C)CCO | – | – | – | 3.27 ± 0.22 | 3.12 ± 0.21 | – | – | 3.35 ± 0.23 | 3.55 ± 0.24 | 3.42 ± 0.23 | – | – | –
